What was measured:
[1] = tested on: rats with transplanted cancer tissue (sarcoma cells induced by methylcholanthrene); assay: Inhibitory effect on weight loss of rats with transplanted cancer (methylcholanthrene-induced sarcoma); assay type: in vivo; settings: once a day for 5 to 14 days from 6-7 days after transplantation, dose-dependent, result in words
Description: Inhibitory Effect on Weight Loss of Rats with Transplanted Cancer
The effect of Compound A was examined using this model. Sarcoma cells induced by methylcholanthrene were subcutaneously injected into the abdomen of rats. The rats were reared in a normal environment for about eight days and in this way animals used to provide cancer were produced. An amount of 0.2 to 0.3 g of fresh cancer tissue obtained from the animals used to provide cancer was subcutaneously transplanted into the abdomen of rats under anesthesia. From 6 days to 7 days after the transplantation of the cancer, Compound A was administered once a day for 5 days to 14 days, and the body weight was daily measured.
An experiment was conducted on Compound B in the same manner as described above.

[2] = tested on: tumor-bearing mice prepared using a murine colon cancer cell line, CT26; assay: Inhibitory effect on weight loss of tumor-bearing mice (CT26 colon cancer transplant); assay type: in vivo, BALB/c mice
Description: Inhibitory Effect on Weight Loss of Tumor-Bearing Mice
Tumor-bearing mice prepared using a murine colon cancer cell line, colon 26, are known to closely reproduce the symptoms of cancer cachexia (Cancer Research, 50, 4528-4532 (1990)). In this experiment, using tumor-bearing mice prepared using a murine colon cancer cell line, CT26, that was established in the same method as that for producing the murine colon cancer cell line, colon 26, (The Journal of Immunology, 154, 4685-4692 (1995)), Compound A of the present invention was evaluated for effects on the body weights of said mice. That is, CT26 colon cancer cells (5×10^6) were subcutaneously transplanted in the flank of BALB/c mice at 7 weeks of age. The transplanted mice were divided into two groups, and once every day from the following day of the transplantation, water for injection was orally administered to the control group, whereas Compound A was orally administered at a dose of 75 mg/kg to the compound administration group. The administered volume was […]. Five and ten days after the transplantation, the tumor size (major axis and minor axis) in each mouse was measured, and the tumor volume was calculated from the following formula: (major axis)×(minor axis)^2/2. In addition, the body weight of each mouse was measured daily after the transplantation. The tumor volume 5 and 10 days after the transplantation of the CT26 murine colon cancer cells, and the body weight 10 days after the transplantation are shown in Table 1. Data are expressed as the mean±standard error.

[3] = CT26 tumor-bearing BALB/c mice, 75 mg/kg orally once daily from the day after transplantation, mean ± standard error

SMILES	Progression of the weight loss in tumor-bearing animals [1]	Body weight 10 days after transplantation [2, 3] [g]	Tumor volume 5 days after transplantation [2, 3] [mm^3]	Tumor volume 10 days after transplantation ([2]; CT26 tumor-bearing BALB/c mice, 75 mg/kg orally once daily from the day after transplantation, mean ± standard error, 75 mg/kg) [mm^3]	Effect on body weight 10 days after transplantation in comparison with the control group ([2]; CT26 tumor-bearing mice, 75 mg/kg orally, critical ratio of 0.1% or lower, result in words)	Effect on tumor volume in comparison with the control group ([2]; CT26 tumor-bearing mice, 75 mg/kg orally, result in words)
CC(C)(N)C(=O)N[C@H](COCc1ccc(F)cc1F)C(=O)N1CCC2=NN(CC(F)(F)F)C(=O)[C@]2(Cc2ccccn2)C1 [Compound B, 2-amino-N-[1-(R)-(2,4-difluoro-benzyloxymethyl)-2-oxo-2-(3-oxo-3a-(R)-pyridin-2-ylmethyl-2-(2,2,2-trifluoro-ethyl)-2,3,3a,4,6,7-hexahydro-pyrazolo[4,3-c]pyridin-5-yl)-ethyl]-2-methyl-propionamide]	significantly inhibited the progression of the weight loss	–	–	–	–	–
CN1N=C2CCN(C(=O)[C@@H](COCc3ccccc3)NC(=O)C(C)(C)N)C[C@@]2(Cc2ccccc2)C1=O [Compound A, 2-amino-N-[2-(3a-(R)-benzyl-2-methyl-3-oxo-2,3,3a,4,6,7-hexahydro-pyrazolo[4,3-c]pyridin-5-yl)-1-(R)-benzyloxymethyl-2-oxo-ethyl]-isobutyramide]	significantly inhibited the progression of the weight loss	22.3 ± 0.2	137 ± 8	291±25	significantly increased the body weight	not capable of reducing the tumor volume

— US10975070B2, “Ghrelin receptor agonist for treatment of cachexia” (RaQualia Pharma Inc., priority 2010, dated 2021)
